Literature values as cited in patent US8865699B2, “Amino triazoles as PI3K inhibitors” (Cellzome Ltd., priority 2007, dated 2014).

Key:
[1] = test system: collagen II-antibody-induced arthritis; settings: wildtype mice, oral
[2] = test system: lymphocyte-dependent rheumatoid arthritis induced by direct collagen II injection; settings: mouse, oral
[3] = test system: MRL-lpr mouse model of systemic lupus erythematosus (SLE); settings: intraperitoneal administration
[4] = test system: animal model of myocardial infarction; settings: dosing after myocardial reperfusion (up to 3 hours after)

SMILES | clinical and histologic signs of arthritis [1] | joint inflammation and damage [2] | CD4+ T-cell populations [3] | glomerulonephritis [3] | life span [3] | edema and inflammation in response to multiple mediators [4]
O=C1NC(=O)/C(=C\c2ccc3nccnc3c2)S1 [AS-605240] | reduced clinical and histologic signs of collagen II-antibody-induced arthritis | decreased joint inflammation and damage | reduced CD4+ T-cell populations | reduced glomerulonephritis | prolonged life span | 
Nc1nc(N)c2nc(-c3cccc(O)c3)c(-c3cccc(O)c3)nc2n1 [TG100-115] |  |  |  |  |  | potently inhibits edema and inflammation
